Reference: patent publication US20210179598A1, “SELECTIVE JAK2 INHIBITOR AND APPLICATION THEREOF” (EAST CHINA UNIVERSITY OF SCIENCE AND TECHNOLOGY, priority 2018, published 2021)
Read-outs that look alike come from different tables or passages of the source.

How the values were obtained:
JAK2 = JAK2 (Homo sapiens, UniProt O60674); test: JAK2 kinase activity test at molecular level (Z'-LYTE FRET); format: biochemical
Method: JAK2 can catalyze the transfer of a phosphate group of adenosine triphosphate (ATP) to a polypeptide substrate, and the polypeptide substrate is labeled with two fluorescent groups, coumarin and fluorescein. […] Therefore, the inhibition rates of different compounds can be calculated by measuring the ratio of enzyme-catalyzed substrate phosphorylation percentages.
10 μL reaction system, 2.5 μL test compound, 5 μL kinase/peptide substrate mixture and 2.5 μL ATP solution were added into a 384-well plate, shaken for 30 s, and incubated at room temperature for 1 hour. 5 μL of proteolytic enzyme and 15 μL of the reaction system were added and shaken for 30 s and incubated at room temperature for 1 h. 5 μL of stop reagent was added, and the reaction system with a total volume of 20 μL was shaken for 30 seconds. A microplate reader was used to detect the fluorescence signal. […] The inhibition rates of the compound at 7 concentration gradients were determined, and the IC50 value for each compound was calculated by fitting curve with Origin 8.0.
(§1) NOTE: HEL, SET-2, H3122 cells were purchased from ATCC (American type culture collection), Z′-LYTETM kinase assay platform was purchased from Invitrogen, HTRF KinEASETM-TK was purchased from Cisbio, and Cell Counting Kit-8 was purchased from Beyotime.

ALK = ALK (Homo sapiens, UniProt Q9UM73); test: ALK kinase IC50 test (HTRF); format: biochemical
ALK, sequence (Q9UM73 19-1620, species assumed): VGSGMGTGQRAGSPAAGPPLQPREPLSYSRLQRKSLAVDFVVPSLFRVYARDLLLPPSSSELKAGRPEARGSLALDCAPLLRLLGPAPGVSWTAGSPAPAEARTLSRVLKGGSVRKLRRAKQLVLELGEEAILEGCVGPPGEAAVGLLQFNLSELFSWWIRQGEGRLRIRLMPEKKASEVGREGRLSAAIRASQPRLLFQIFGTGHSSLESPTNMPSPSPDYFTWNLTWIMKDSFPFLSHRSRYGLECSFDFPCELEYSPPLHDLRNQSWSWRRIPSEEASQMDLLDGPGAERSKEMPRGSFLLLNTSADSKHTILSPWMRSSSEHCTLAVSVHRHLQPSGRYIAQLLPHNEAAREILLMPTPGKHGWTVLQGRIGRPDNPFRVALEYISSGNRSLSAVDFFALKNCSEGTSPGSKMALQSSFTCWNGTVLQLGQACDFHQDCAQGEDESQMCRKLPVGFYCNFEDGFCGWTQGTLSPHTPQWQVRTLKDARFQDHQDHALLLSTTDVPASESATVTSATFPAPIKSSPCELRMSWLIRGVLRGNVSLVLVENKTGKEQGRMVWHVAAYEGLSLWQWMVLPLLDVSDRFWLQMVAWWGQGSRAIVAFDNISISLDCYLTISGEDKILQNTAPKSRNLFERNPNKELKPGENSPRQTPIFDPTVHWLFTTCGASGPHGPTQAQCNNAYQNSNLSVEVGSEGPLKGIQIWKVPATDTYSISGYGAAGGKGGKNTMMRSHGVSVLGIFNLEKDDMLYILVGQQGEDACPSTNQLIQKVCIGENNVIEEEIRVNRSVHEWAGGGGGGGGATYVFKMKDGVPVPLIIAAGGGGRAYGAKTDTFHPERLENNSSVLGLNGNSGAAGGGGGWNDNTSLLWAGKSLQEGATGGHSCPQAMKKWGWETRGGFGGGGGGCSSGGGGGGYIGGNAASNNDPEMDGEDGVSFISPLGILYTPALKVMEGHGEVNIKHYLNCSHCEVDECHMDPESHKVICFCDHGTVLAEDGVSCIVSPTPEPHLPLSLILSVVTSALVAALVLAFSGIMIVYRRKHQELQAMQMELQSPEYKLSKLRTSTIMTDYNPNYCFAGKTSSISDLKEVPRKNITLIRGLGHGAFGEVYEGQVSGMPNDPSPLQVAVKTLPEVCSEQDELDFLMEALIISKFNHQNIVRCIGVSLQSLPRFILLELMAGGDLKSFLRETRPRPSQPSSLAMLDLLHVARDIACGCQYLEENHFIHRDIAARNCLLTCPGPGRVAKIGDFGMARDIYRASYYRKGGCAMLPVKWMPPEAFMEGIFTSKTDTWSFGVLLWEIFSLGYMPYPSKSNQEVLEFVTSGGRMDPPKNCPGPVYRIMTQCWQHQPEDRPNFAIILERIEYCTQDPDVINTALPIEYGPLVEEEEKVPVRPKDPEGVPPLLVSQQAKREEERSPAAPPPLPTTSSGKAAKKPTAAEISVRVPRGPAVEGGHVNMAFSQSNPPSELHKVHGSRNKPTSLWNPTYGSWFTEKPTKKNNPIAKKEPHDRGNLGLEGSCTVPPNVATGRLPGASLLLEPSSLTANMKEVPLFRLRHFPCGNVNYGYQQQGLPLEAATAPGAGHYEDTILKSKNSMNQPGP
Description: According to HTRF method, the peptide substrate was labeled with a biotin, which can specifically bind to XL665-labeled streptavidin. When the kinase adds a phosphate group to the polypeptide substrate in the first step, its Eu-labeled specific phosphorylation antibody can recognize and bind to it. In this way, in the second step of detection, a complex of XL665-labeled streptavidin, phosphorylated peptide substrate and Eu-labeled phosphorylation antibody can be formed. Since the distance between XL665 and Eu is short, FRET can be formed. On the other hand, Eu has a relatively long fluorescence half-life and can be applied to time-resolved fluorescence detection.
10 μL of reaction system, 4 μL test compound, 2 μL kinase, 2 μL biotin-labeled substrate and 2 μL ATP, was added into a 384-well plate, shaken for 30 s, and incubated at room temperature for 1 hour. 5 μL of Eu-labeled phosphorylation site-specific antibody and 5 μL of XL665-labeled streptavidin were added. The reaction system was shaken for 30 s, and incubated at room temperature for 1 hour. A microplate reader was used to detect the fluorescence signal. The inhibition rates of the compounds under 8 concentration gradients were determined, and the IC50 value of each compound was calculated by fitting curve with Origin 8.0. […] Each experiment was performed in triplicate.
as §1

SET 2 (JAK2 V617F) cells = test: CCK-8 cell proliferation detection, SET2 cells; format: cell-based; details: Homo sapiens, Table 2, CCK-8, 72 hrs
Description: (§2) WST-8 (chemical name: 2-(2-methoxy-4-nitrophenyl)-3-(4-nitrophenyl)-5-(2,4-disulfo benzene)-2H-tetrazolium monosodium), which is reduced to a highly water-soluble yellow formazan product (Formazan dye) by the dehydrogenase in cells under the action of the electron carrier dimethyl 1-methoxy-5-methylphenazinium sulfate (1-Methoxy PMS). The amount of the produced formazan is proportional to the number of living cells. Therefore, the survival rate of cells can be calculated indirectly by measuring the absorbance at 450 nm. The half inhibition rate of the compound on the proliferation of H3122, SET2, HEL cells can be determined by the CCK-8 method.
(§3) RPIM medium containing 10% FBS was used to culture cells (100 μL per well), and 3500 cells were inoculated into a 96-well plate, and placed in a 37° C., 5% CO2 incubator for 24 h, until 50%-70% of the cell confluence was achieved. Drugs with different concentration gradients were added respectively, and incubated for another 72 hrs. […] And finally the absorption value of each well was measured at 450 nm.
as §1

HEL (JAK2 V617F) cells = test: CCK-8 cell proliferation detection, HEL cells; format: cell-based; details: Homo sapiens, Table 2, CCK-8, 72 hrs
Description: as §2, §3, §1

H3122 cells = test: CCK-8 cell proliferation detection, H3122 cells; format: cell-based
Description: as §2, §3, §1

[1] = Homo sapiens, NCI-H3122, Table 2, CCK-8, 72 hrs
[2] = Table 1, read-out: JAK2 kinase activity IC50
[3] = Table 4, configurations of MXY-193
[4] = Homo sapiens, NCI-H3122, 72 h, Table 2, CCK-8, 72 hrs
[5] = Homo sapiens, NCI-H3122, Table 4, configurations of MXY-193

JAK2, sequence (O60674 whole entry): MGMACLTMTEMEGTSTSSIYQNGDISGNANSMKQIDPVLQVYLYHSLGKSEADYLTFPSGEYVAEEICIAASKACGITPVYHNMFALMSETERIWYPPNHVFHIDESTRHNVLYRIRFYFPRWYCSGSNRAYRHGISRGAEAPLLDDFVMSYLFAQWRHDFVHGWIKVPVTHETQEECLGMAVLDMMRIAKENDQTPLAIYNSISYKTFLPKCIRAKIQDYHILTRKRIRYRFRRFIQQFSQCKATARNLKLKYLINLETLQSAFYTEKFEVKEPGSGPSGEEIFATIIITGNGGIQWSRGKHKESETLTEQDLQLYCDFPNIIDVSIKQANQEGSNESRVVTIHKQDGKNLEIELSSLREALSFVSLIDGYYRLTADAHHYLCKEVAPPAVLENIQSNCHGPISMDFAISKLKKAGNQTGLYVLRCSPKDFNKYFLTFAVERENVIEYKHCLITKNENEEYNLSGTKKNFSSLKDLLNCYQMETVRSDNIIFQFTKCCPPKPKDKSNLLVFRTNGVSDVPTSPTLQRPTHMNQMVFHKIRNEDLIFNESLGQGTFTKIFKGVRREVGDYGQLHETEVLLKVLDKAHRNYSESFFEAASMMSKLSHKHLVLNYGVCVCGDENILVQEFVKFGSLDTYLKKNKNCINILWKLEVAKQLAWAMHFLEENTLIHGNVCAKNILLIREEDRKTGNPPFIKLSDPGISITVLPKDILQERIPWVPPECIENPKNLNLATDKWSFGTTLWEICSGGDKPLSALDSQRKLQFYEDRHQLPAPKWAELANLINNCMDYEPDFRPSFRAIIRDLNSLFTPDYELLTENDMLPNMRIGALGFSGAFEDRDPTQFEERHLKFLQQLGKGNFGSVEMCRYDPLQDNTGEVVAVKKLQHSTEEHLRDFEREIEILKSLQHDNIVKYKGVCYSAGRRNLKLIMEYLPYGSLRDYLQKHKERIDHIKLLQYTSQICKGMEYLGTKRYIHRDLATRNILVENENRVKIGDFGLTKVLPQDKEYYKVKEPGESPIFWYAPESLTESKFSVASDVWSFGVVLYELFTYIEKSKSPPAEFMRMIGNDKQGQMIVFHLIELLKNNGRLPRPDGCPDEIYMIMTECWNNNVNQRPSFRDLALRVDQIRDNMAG

Compound	IC50 (JAK2; Table 2, read-out: JAK2 IC50)	IC50 (ALK; Table 2)	IC50 (H3122 cells; [1])	IC50 (JAK2; [2])	IC50 (ALK; [3])	IC50 (H3122 cells; [4])	IC50 (H3122 cells; [5])	IC50 (H3122 cells; [3])	IC50 (SET 2 (JAK2 V617F) cells; SET-2)	IC50 (HEL (JAK2 V617F) cells)	IC50 (SET 2 (JAK2 V617F) cells; SET-2, 72 h)	IC50 (HEL (JAK2 V617F) cells; 72 h)
CC(Oc1cc(-c2cnn(C3COC3)c2)cnc1N)c1cc(F)ccc1Cl (stereo not drawn) [MXY-032-51]	0.025 ± 0.001 µM	0.335 µM	9.91 ± 1.28 µM						31.2 µM	4.67 µM		
CC(Oc1cc(-c2cccc(N3CCOCC3)c2)cnc1N)c1cc(F)ccc1Cl (stereo not drawn) [MXY-032-55]	0.528 ± 0.008 µM	3.89 µM	11.6 ± 6.02 µM						18.6 µM	5.99 µM		
CCC(Oc1cc(-c2cnn(C3CCNCC3)c2)cnc1N)c1c(Cl)ccc(F)c1Cl (stereo not drawn) [WWQ-1093-13, 4-{3-[1-(2,6-dichloro-3-fluorophenyl)propoxy]-2-aminopyridine}pyrazol-1-piperidine]	0.1 ± 0.002 µM	3.56 µM	3.537 ± 0.034 µM	0.1 ± 0.002 µM					7.86 µM	37.3 µM		
CC(Oc1cc(Nc2ccc3ccccc3n2)cnc1N)c1cc(F)ccc1Cl (stereo not drawn) [MXY-032-85]	> 10 µM	> 10 µM	12 ± 2.32 µM						> 50 µM	5.74 µM		
CC(Oc1cc(Nc2cc3ccccc3cn2)cnc1N)c1cc(F)ccc1Cl (stereo not drawn) [MXY-032-69]	> 5 µM	> 10 µM	25.3 ± 6.24 µM						> 50 µM	10.7 µM		
COCCn1cc(-c2cnc(N)c(OC(C)c3cc(F)ccc3Cl)c2)cn1 (stereo not drawn) [MXY-032-95]	0.011 ± 0.001 µM	2.36 µM	1.36 ± 0.869 µM						3.9 µM	2.34 µM		
N#CC[C@H](C1CCCC1)n1cc(-c2ncnc3[nH]ccc23)cn1 [Ruxolitinib, reference compound]			27.2 ± 3.39 µM									
CC(Oc1cc(-c2cnn(C3CCOC3)c2)cnc1N)c1cc(F)ccc1Cl (stereo not drawn) [MXY-032-53]	0.027 ± 0.001 µM	1.24 µM	6.34 ± 1.91 µM						44.1 µM	4.54 µM		
CC(Oc1cc(-c2cnn(C3CCOCC3)c2)cnc1N)c1cc(F)ccc1Cl (single isomer, unassigned) [Configuration 1]					6.5 µM		56.7 µM					
CC(Oc1cc(-c2cncnc2)cnc1N)c1cc(F)ccc1Cl (stereo not drawn) [MXY-032-45]	0.566 ± 0.029 µM	3.67 µM	> 100 µM						> 10 µM	> 10 µM		
C[C@@H](Oc1cc(-c2cnn(C3CCNCC3)c2)cnc1N)c1c(Cl)ccc(F)c1Cl [Crizotinib, reference compound]						0.842 ± 0.056 µM					0.47 µM	7.3 µM
CC(Oc1cc(-c2cnn(C3CCNCC3)c2)cnc1N)c1c(Cl)ccc(F)c1Cl (stereo not drawn) [WWQ-1093-65, 4-{3-[1-(2,6-dichloro-3-fluorophenyl)ethoxy]-2-aminopyridine}pyrazole-1-piperidine]						0.648 ± 0.044 µM					1.49 µM	11.7 µM
CC(Oc1cc(-c2cnn(C3CCOCC3)c2)cnc1N)c1cc(F)ccc1Cl (single isomer, unassigned) [Configuration 2]					> 10 µM			> 100 µM				

More lines, main results first:

IC50 (JAK2; Table 2, read-out: JAK2 IC50)	IC50 (ALK; Table 2)	IC50 (H3122 cells; [1])	IC50 (JAK2; [2])	IC50 (ALK; [3])	IC50 (H3122 cells; [4])	IC50 (H3122 cells; [5])	IC50 (H3122 cells; [3])	Compound	IC50 (SET 2 (JAK2 V617F) cells; SET-2)	IC50 (HEL (JAK2 V617F) cells)	IC50 (SET 2 (JAK2 V617F) cells; SET-2, 72 h)	IC50 (HEL (JAK2 V617F) cells; 72 h)
1.84 ± 0.025 µM	> 10 µM	11.9 ± 0.31 µM						CC(Oc1cc(-c2cn(C)cn2)cnc1N)c1cc(F)ccc1Cl (stereo not drawn) [XFL-171]	4.47 µM	13.5 µM		
3.35 ± 0.063 µM	> 10 µM	17.57 ± 0.161 µM						CC(Oc1cc(Nc2ccccc2)cnc1N)c1cc(F)ccc1Cl (stereo not drawn) [MXY-171]	2.14 µM	2.11 µM		
0.145 ± 0.01 µM	2.34 µM	62.5 ± 4.78 µM						CC(Oc1cc(-c2cnn3cccnc23)cnc1N)c1cc(F)ccc1Cl (stereo not drawn) [MXY-181]	> 50 µM	49 µM		
0.442 ± 0.003 µM	0.511 µM	> 10 µM	0.442 ± 0.003 µM					CC(Oc1cc(-c2cnn(C3CCNCC3)c2)cnc1N)c1c(Cl)cccc1Cl (stereo not drawn) [WWQ-133, 4-{3-[1-(2,6-dichlorophenyl)ethoxy]-2-aminopyridine}pyrazol-1-piperidine]	0.879 µM	15 µM		
0.931 ± 0.032 µM	7.78 µM	> 100 µM						CC(Oc1cc(-n2cccn2)cnc1N)c1cc(F)ccc1Cl (stereo not drawn) [XFL-179]	> 50 µM	> 50 µM		
1.1 ± 0.081 µM	> 10 µM	> 100 µM						CC(Oc1cc(Nc2ccccn2)cnc1N)c1cc(F)ccc1Cl (stereo not drawn) [MXY-175]	11 µM	2.23 µM		
	> 10 µM	> 100 µM						CC(Oc1cc(-c2cc3ccccc3[nH]2)cnc1N)c1cc(F)ccc1Cl (stereo not drawn) [MXY-141]	13.2 µM	12.2 µM		
	> 10 µM			> 10 µM	78.8 ± 2.27 µM	78.8 ± 2.27 µM		CC(Oc1cc(-c2cnn(C3CCOCC3)c2)cnc1N)c1cc(F)ccc1Cl (stereo not drawn) [MXY-193]				
0.925 ± 0.102 µM	5.5 µM	50.6 ± 8.01 µM						CC(Oc1cc(-c2c[nH]c3ccccc23)cnc1N)c1cc(F)ccc1Cl (stereo not drawn) [MXY-137]	12.5 µM	1.67 µM		
	0.132 µM	0.988 ± 0.047 µM						COc1ncc(F)cc1C(C)Oc1cc(-c2cnn(C3CCNCC3)c2)cnc1N (stereo not drawn) [MXY-111]	2.48 µM	12.4 µM		
0.061 ± 0.007 µM	1.23 µM	3.3 ± 0.05 µM						CC(Oc1cc(-c2cnn3ccccc23)cnc1N)c1cc(F)ccc1Cl (stereo not drawn) [MXY-97]	4.51 µM	1.85 µM		
2.68 ± 0.05 µM	> 10 µM	> 100 µM						Cc1cc(Nc2cnc(N)c(OC(C)c3cc(F)ccc3Cl)c2)nn1C (stereo not drawn) [MXY-191]	> 50 µM	23.1 µM		
0.3021 ± 0.003 µM		78.6 ± 3 µM						CC(Oc1cc(-c2ccn[nH]2)cnc1N)c1cc(F)ccc1Cl (stereo not drawn) [XFL-141]	2.48 µM	5.41 µM		
